Values of other authors in patent publication US20060264455A1 (priority 2005, published 2006).

System: 6 Hz limbic seizures (corneal stimulation)
Settings: established antiepileptic drugs; cited from earlier work

| SMILES | Efficacy in the 6 Hz psychomotor seizure model |
| --- | --- |
| NC(=O)N1c2ccccc2C=Cc2ccccc21 [carbamazepine] | limited efficacy |
| Nc1nnc(-c2cccc(Cl)c2Cl)c(N)n1 [lamotrigine] | limited efficacy |
| O=C1NC(=O)C(c2ccccc2)(c2ccccc2)N1 [phenytoin] | limited efficacy |
| CC1(C)O[C@@H]2[C@@H](CO[C@@]3(COS(N)(=O)=O)OC(C)(C)O[C@@H]23)O1 [topiramate] | limited efficacy |
